Results: publication PMC10451623 (Antioxidants, 2023)
Values belong to the molecule of their own block, whether it stands above or below them. No end group written: not given here. *: point of attachment. Biotin = O=C1N[C@H]2[C@H](CS[C@H]2CCCCC(=O)*)N1

Key:
PPARα-LBD [1] = target: T1, PPARα-LBD (Homo sapiens, UniProt Q07869); assay: Thermal stability assay using circular dichroism spectroscopy; type: binding; design: Human PPARα-LBD (amino acids 200–468); His tag (pET28a) (N); made in house; host or cells: Rosetta (DE3) pLysS (E. coli); conditions: CD at 222 nm; 10 µM LBD; GW7647 at 10 µM
T1 sequence (Q07869 200-468): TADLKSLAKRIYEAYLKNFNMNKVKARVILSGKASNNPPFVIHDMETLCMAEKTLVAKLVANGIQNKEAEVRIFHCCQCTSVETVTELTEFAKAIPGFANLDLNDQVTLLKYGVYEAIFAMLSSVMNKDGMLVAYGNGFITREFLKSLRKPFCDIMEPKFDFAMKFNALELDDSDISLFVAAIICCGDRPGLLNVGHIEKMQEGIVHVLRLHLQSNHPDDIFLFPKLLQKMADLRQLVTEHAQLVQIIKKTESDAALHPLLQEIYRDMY
Description: (§1) PPARα/δ/γ-LBD proteins (10 µM) were incubated with different concentrations of ligands in buffer C consisting of 20 mM Tris-HCl (pH 8.0), 150 mM NaCl, 1 mM Tris 2-carboxyethylphosphine (TCEP)-HCl, and 10% glycerol. The circular dichroism (CD) spectra were monitored within a 200–260 nm range at increasing temperatures from 30 °C to 70 °C (2 °C/min) using a J-1500 spectropolarimeter equipped with a PTC-510 thermal controller (JASCO, Tokyo, Japan). […] The ligand-induced increases in the Tm values were defined as ∆Tm.
(§2) Nuclear receptors, including PPARs, display an increased thermal stability upon ligand binding, which is detectable through CD spectroscopy.
(§3) Figure 3 Circular dichroism-based PPARα/δ/γ-LBD thermal stability assay. […] Data are presented as the mean ± SE of three or four (in parentheses) independent experiments. Differences vs. basal levels (with 0.1% DMSO) were statistically assessed by one-way ANOVA, followed by a Dunnett’s post hoc test: * p < 0.05, ** p < 0.01, and *** p < 0.001.

PPARα-LBD [2] = target: T1, PPARα-LBD; design: Human PPARα-LBD (amino acids 200–468); made in house; host or cells: Rosetta (DE3) pLysS (E. coli); method as in PMID 33205029; conditions: read-out: EC50 in the PGC1α recruitment activity (PPARα); cited from earlier work
PPARδ-LBD = target: T2, PPARδ-LBD (Homo sapiens, UniProt Q03181); assay: Thermal stability assay using circular dichroism spectroscopy; type: binding; design: PPARδ-LBD (amino acids 170–441); His tag (pET28a) (N); made in house; host or cells: Rosetta (DE3) pLysS (E. coli); conditions: CD at 222 nm; 10 µM LBD; GW501516 at 50 µM
T2 sequence (Q03181 170-441): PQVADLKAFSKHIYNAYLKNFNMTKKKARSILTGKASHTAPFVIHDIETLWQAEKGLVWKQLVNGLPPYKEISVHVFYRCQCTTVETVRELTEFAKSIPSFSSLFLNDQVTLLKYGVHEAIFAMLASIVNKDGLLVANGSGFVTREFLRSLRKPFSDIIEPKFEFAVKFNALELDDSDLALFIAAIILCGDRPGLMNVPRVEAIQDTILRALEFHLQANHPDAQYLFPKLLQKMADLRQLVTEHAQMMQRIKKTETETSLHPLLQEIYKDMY
Description: as §1, §2, §3

human PPARα = target: T3, human PPARα (Homo sapiens, UniProt Q07869); assay: Transactivation assay (GAL4–hPPARα-LBD chimera, luciferase reporter, COS-7 cells); type: cell-based; conditions: 100% = 1 µM GW7647, read-out: Efficacy, PPARα transactivation (% of the maximal response)
T3 construct: expressed in transfected cells; host or cells: COS-7
T3 sequence (Q07869 239-466 limits assumed): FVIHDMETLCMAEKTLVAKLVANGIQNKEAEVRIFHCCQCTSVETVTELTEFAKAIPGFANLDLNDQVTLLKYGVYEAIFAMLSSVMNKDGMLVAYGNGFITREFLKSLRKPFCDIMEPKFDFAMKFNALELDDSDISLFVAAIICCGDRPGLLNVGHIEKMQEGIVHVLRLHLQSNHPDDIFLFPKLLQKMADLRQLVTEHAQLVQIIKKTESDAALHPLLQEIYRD
Description: (§4) The pSG5-GAL–hPPARα/δ/γ plasmids express fusion proteins comprising the yeast transcription factor GAL4 DNA-binding domain and each of the human PPARα/δ/γ-LBDs. The MH100(UAS)×4-tk-Luc plasmid contains four copies of the MH100 GAL4 binding site and the Firefly luciferase gene. The cells were transfected with those plasmids and were treated with various PPAR ligands, and both Firefly and Renilla luciferase activities were measured using the Dual-Glo Luciferase Assay System (Promega, Madison, WI, USA) as described previously. […] GW1929 was purchased from Sigma-Aldrich (St. Louis, MO, USA).
(§5) For the undertaking of the comparison of the potency, efficacy, and selectivity of the five PPAR ligands (Figure 1A) against the PPAR subtypes, we evaluated their PPARα/δ/γ activation using three different methods: a cell-based transactivation assay, a coactivator recruitment assay, and a thermal stability assay, as we previously performed on three fibrates (namely, bezafibrate, fenofibric acid, and pemafibrate). The cell-based transactivation assay utilizing the Gal4–PPAR-LBD system is the most widely used method for the determination of PPAR activation by certain ligands, although their responses depend on the used cell types in which several coactivators with altered functions are differentially expressed.
(§6) Figure 1 LBD-mediated human PPARα/δ/γ transactivation by PPAR ligands. (A) Chemical structures of the five PPAR ligands used in this study. […] Data are presented as the mean ± standard error (SE) of three independent experiments with duplicate samples.

human PPARδ = target: T4, human PPARδ (Homo sapiens, UniProt Q03181); assay: Transactivation assay (GAL4–hPPARδ-LBD chimera, luciferase reporter, COS-7 cells); type: cell-based; conditions: COS-7, read-out: Efficacy, PPARδ transactivation (% of the maximal response)
T4 construct: expressed in transfected cells; host or cells: COS-7
T4 sequence (Q03181 211-439 limits assumed): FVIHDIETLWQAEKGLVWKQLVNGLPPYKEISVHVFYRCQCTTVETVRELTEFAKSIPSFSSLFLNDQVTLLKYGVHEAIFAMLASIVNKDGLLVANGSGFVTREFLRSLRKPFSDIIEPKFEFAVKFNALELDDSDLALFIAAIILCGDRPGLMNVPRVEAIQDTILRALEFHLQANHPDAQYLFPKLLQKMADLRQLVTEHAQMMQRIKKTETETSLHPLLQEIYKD
Description: as §4, §5, §6

PPARγ-LBD = target: T5, PPARγ-LBD (Homo sapiens, UniProt P37231); assay: Thermal stability assay using circular dichroism spectroscopy; type: binding; design: PPARγ-LBD (amino acids 203–477 in isoform 1); His tag (pET28a) (N); made in house; host or cells: Rosetta (DE3) pLysS (E. coli); conditions: CD at 222 nm; 10 µM LBD; GW1929 at 10 µM
T5 sequence (P37231 203-477 isoform P37231-2): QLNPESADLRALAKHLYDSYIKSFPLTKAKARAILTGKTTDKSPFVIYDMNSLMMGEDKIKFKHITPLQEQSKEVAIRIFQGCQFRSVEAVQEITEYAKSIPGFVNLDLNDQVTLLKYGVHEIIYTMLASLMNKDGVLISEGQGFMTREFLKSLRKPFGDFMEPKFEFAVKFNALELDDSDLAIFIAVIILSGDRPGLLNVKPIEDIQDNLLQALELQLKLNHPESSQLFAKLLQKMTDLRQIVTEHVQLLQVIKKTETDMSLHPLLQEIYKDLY
Description: as §1, §2, §3

[3] = target: T6, Human PPARα-LBD (amino acids 200–468), amino-terminal His-tagged (human, UniProt Q07869 200-468); assay: FRET or BRET; LANCE Ultra TR-FRET; His-tagged LBD (400 nM solution, 9.5 µL) + biotin-PGC1α (4 µM, 5 µL) or biotin-SRC1 peptide (8 µM, 5 µL), Eu-W1024 anti-6×His antibody / ULight-Streptavidin, 2 h, room temperature; buffer A (10 mM HEPES-NaOH pH 7.4, 150 mM NaCl, 0.005% Tween 20, 0.1% BSA) for PPARα/γ-LBD, buffer B (50 mM HEPES-NaOH pH 7.4, 50 mM KCl, 1 mM EDTA, 0.5 mM DTT, 0.1% BSA) for PPARδ-LBD; ligand: reference …; conditions: both partners purified
T6 construct: The His tag is detected by the anti-6xHis antibody in the TR-FRET assay; A delipidized preparation was used for some PPARα crystals; also called hPPARα-LBD; not shown: His tag, N-terminal, kept
T6 sequence (looked up): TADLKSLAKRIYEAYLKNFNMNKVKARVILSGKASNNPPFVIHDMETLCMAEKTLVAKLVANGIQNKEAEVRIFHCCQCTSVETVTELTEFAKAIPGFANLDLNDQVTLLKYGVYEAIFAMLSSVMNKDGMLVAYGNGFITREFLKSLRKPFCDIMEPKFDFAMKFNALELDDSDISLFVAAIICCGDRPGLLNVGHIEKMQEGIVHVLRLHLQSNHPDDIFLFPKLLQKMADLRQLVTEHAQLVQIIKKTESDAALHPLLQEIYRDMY

Molecule: CC(C)(Oc1ccc(Cl)cc1)C(=O)O [clofibric acid]
EC50 (PPARα-LBD [2]): 574 µM

Molecule: CCc1ccc(CCOc2ccc(CC3SC(=O)NC3=O)cc2)nc1 (centres unmarked) [pioglitazone]
Effect on Tm of PPARδ-LBD (in words) (PPARδ-LBD): no effects
Emax (human PPARα): 25.2%
Effect on Tm of PPARα-LBD (in words) (PPARα-LBD [1]): no effects
Emax (human PPARδ): 0.518%

Molecule: GW1929
Effect on Tm of PPARγ-LBD (in words) (PPARγ-LBD): highly increased Tm values

Other lines, results leading:

Effect on Tm of PPARα-LBD (in words) (PPARα-LBD [1]): highly increased Tm values
Molecule: CC(C)(Sc1ccc(CCN(CCCCC2CCCCC2)C(=O)NC2CCCCC2)cc1)C(=O)O [GW7647]

binding result [3]: binds
B1: biotin-labeled PPARγ coactivator 1α (PGC1α) coactivator peptide (amino acids 137–155) (peptide)
peptide: Biotin-EAEEPSLLKKLLLAPANTQ
notes: also called biotin-PGC1α; source: synthetic peptide (GenScript)
